Experimental data from patent publication US20100316626A1, “METHODS FOR TREATMENT AND DIAGNOSIS OF PSYCHIATRIC DISORDERS” (THE GOVERNMENT OF THE UNITED STATES OF AMERICA AS …, priority 2006, published 2010).
pIC50, pKd: −log10 of the molar value.

Key:
[1] = system: LTP at Schaffer collateral-CA1 synapses; assay: LTP and LTP depotentiation at Schaffer collateral-CA1 synapses in acute hippocampal slices; format: cell-based, mouse; details: for block of the effects of NRG-1β on LTP by ErbB RTK inhibitors: inhibitor 10 μM applied 10 min prior to NRG-1, FIG. 3D
Protocol: (§1) Acute mouse hippocampal slice preparation: Hippocampal slices from 4 to 5 week old C57BL/6 mice were prepared in ice-cold artificial cerebrospinal fluid (ACSF) and cut on a 1000PLUS Vibratome (VIBRATOME, St. Louis, USA) to a thickness of ˜300 μm.
Electrophysiological recordings in mouse hippocampal slices: A single slice was transferred to a submerged recording chamber continuously perfused at a flow rate of 2 mL/min (30° C.) with recording ACSF (same as cutting ACSF minus the ascorbate, myo-inositol and pyruvate). Recordings were performed in 10 μM bicuculline (Tocris, USA) to block inhibitory activity. […] A borosilicate two-barrel stimulation electrode (World Precision Instruments, Sarasota, Fla.) with a silver wire (A-M Systems, Carlsberg, Wash.) was filled with oxygenated ACSF recording solution and placed in the stratum radiatum to stimulate the Schaffer collateral/commissural fibers at 0.05 Hz (0.1 msec, 20-40 μA) via a stimulus isolator (A365, World Precision Instruments, Sarasota, Fla.). Data were collected with a Multiclamp 700A amplifier (Axon Instrument, Foster city, CA). The recordings were digitized at a sampling rate of 10 kHz and filtered at 3 kHz. Baseline fEPSP slopes were set to 40-50% of maximum response. Baseline recordings of at least 10 min were obtained once stable basal transmission was observed. LTP was induced using a theta burst stimulation (TBS) protocol that consisted of 5 trains delivered at 0.2 Hz. […] To measure the AMPAR or the NMDAR components of evoked EPSCs, voltage-clamp recordings from CA1 pyramidal neurons were performed at holding potentials of −70 mV to measure the AMPAR component (10 EPSCs during 1 min) or at +40 mV to measure the NMDAR component. The AMPAR or NMDAR mediated EPSCs were measured 5 min prior to delivering the TBS, at approximately 20 min after inducing LTP (when the response stabilized), and at 10 and 40 min after commencing NRG-1β1 perfusion. In other experiments NMDAR EPSCs were recorded in potentiated slices prior to and after NRG-1 treatment at +40 mV (plus […] CNQX) to inhibit residual AMPAR currents. Paired-pulse facilitation was analyzed in whole-cell current-clamp recordings with inter-pulse intervals set to 50, 100, 150 and 200 msec.
Peptides corresponding to the splice variants of the EGF-like domains of NRG-1β1 and NRG-1α2 were dissolved in recording ACSF solution to a final concentration 0.1 or 1 nM. NRG was delivered for 10 min in external recording ACSF solution 20, 30 or 50 min following TBS. The ErbB receptor inhibitors PD158780 (10 μM) and PD168393 (10 μM) were diluted in ACSF solution and applied to the slices 10 min prior to NRG-1 addition to ensure diffusion into the cell and efficient receptor inhibition. […] Data were analyzed for significance using the Student's t-test. […]

[2] = system: basal synaptic transmission in hippocampal slices; assay: Basal synaptic transmission in acute hippocampal slices (field recordings); format: cell-based, mouse; details: D2-selective inhibitors perfused in hippocampal slices; FIG. 11A
Protocol: as §1
Electrophysiological recordings in mouse hippocampal slices: A single slice was transferred to a submerged recording chamber continuously perfused at a flow rate of 2 mL/min (30° C.) with recording ACSF (same as cutting ACSF minus the ascorbate, myo-inositol and pyruvate). Recordings were performed in 10 μM bicuculline (Tocris, USA) to block inhibitory activity. […] The AMPAR or NMDAR mediated EPSCs were measured 5 min prior to delivering the TBS, at approximately 20 min after inducing LTP (when the response stabilized), and at 10 and 40 min after commencing NRG-1β1 perfusion. In other experiments NMDAR EPSCs were recorded in potentiated slices prior to and after NRG-1 treatment at +40 mV (plus […] CNQX) to inhibit residual AMPAR currents. Paired-pulse facilitation was analyzed in whole-cell current-clamp recordings with inter-pulse intervals set to 50, 100, 150 and 200 msec.
Peptides corresponding to the splice variants of the EGF-like domains of NRG-1β1 and NRG-1α2 were dissolved in recording ACSF solution to a final concentration 0.1 or 1 nM. […] Data were analyzed for significance using the Student's t-test. […]

FGF receptor = details: at μM concentrations; cited from earlier work
[3] = system: surface seGFP-GluR1 AMPA receptors; assay: Live imaging of surface seGFP-GluR1 in transfected dissociated hippocampal neurons; format: cell-based, rat; details: PD158780 5 min before and during NRG-1; FIG. 6A
Protocol: Dissociated hippocampal cultures and chemLTP induction: Hippocampal neuronal cultures from E19 rat pups were prepared as reported previously. C. S. Herrmann et al., Clin Neurophysiol 116: 2719, 2005; A. Fisahn, et al., Nature 394: 186, 1998. Neurons were plated on 12 mm glass coverslips in 24 well plates at a density of 50,000 cells/well. ChemLTP was induced in cultures essential as described previously with minor modifications (Liao et al., 2001; Lu et al., 2001). Briefly, cells grown for 5 days in vitro (DIV5) were switched to medium containing 200 μM APV and maintained in Neurobasal media supplemented with B-27 (Invitrogen) until DIV18 to DIV22. […]
Live imaging in transfected hippocampal neurons of surface seGFP-tagged GluR1 AMPARs. […] Cells were perfused with […] glycine-containing medium used to induce chemLTP prior to capturing images and recorded for 4 min. […] Immediately after quenching with acidic MES buffer, cultures were switched back to 200 μM glycine in HBBSS (pH 7.4) for 2 min to recover the fluorescence. […] Images were detected with a cooled CCD camera (10 mW output, 12 bits, 1344×1024 pixels, Hamamatsu Orca ER) using 400 msec of exposure and 2×2 binning. Fluorescence was determined in 20-μm segments of neuronal processes that were at least 10 μm removed from the neuronal soma. […] Significance was evaluated by 1-way-ANOVA.

PDGF receptor = details: at μM concentrations; cited from earlier work
ErbB receptors [4] = details: A431, SK-BR-3 and MDA-MB-453 cells; read-out: IC50 for block of ErbB phosphorylation; cited from earlier work
[5] = system: A431, SK-BR-3 and MDA-MB-453 cells; details: cited from earlier work
ErbB receptors [6] = details: cited from earlier work

Row | Compound | block of the effects of NRG-1β on LTP by ErbB RTK inhibitors [1] | effect on NRG-1-evoked LTP depotentiation ([1]; 50 nM, FIG. 11C) | effect on basal synaptic transmission [2] | cross-reactivity with FGF receptor (FGF receptor) | block of NRG-1-induced internalization of seGFP-GluR1 [3] | cross-reactivity with PDGF receptor (PDGF receptor) | pIC50 (ErbB receptors [4]) | effect on LTP depotentiation elicited by TPS ([1]; two-pathway approach, FIG. 4C,D) | concentration that blocks proliferation [5] [µM] | dissociation rate and autophosphorylation inhibition of the receptors (ErbB receptors [6]) | pKd (ErbB receptors [6]; reconstituted receptors in vitro, read-out: affinities (binds competitively with ATP in the pocket))
1 | C=CC(=O)Nc1ccc2ncnc(Nc3cccc(Br)c3)c2c1 [PD168393, 4-[3(Bromophenyl)amino]-6-acrylamidoquinazoline] | completely blocked | – | – | – | – | – | – | – | – | – | –
2 | Clc1ccc(N2CCN(Cc3c[nH]c4ncccc34)CC2)cc1 [L745870] | – | prevent NRG-1-evoked LTP depotentiation | no effect | – | – | – | – | – | – | – | –
3 | CNc1cc2c(Nc3cccc(Br)c3)ncnc2cn1 [PD158780, 4-[(3-Bromophenyl)amino]-6-(methylamino)-pyrido[3,4-d]pyridimine] | completely blocked | – | – | no cross-reactivity | completely blocked | no cross-reactivity | 7.30 to 7.82 | block LTP depotentiation | 0.1 to 1 | extremely slow (several hours) | 9.00 to 10.00
